Results on 1 molecule are retold here after patent publication US20240368149A1, “ANALOGS OF XANOMELINE” (Terran Biosciences Inc., priority 2023, published 2024).

For orientation: Tmax means the time from dosing to the highest level. One may read the Cmax as the maximum level reached in the sampled fluid or tissue.

Read-outs that look alike come from different tables or passages of the source.

The nature of data set [1]: Rat PK: plasma prodrug concentration after intramuscular (IM) dosing of xanomeline prodrugs at 5 mg/kg (Example A-4). In kind it is in vivo, male Sprague-Dawley (SD) rats. The following applies: male, Sprague-Dawley, IM 5 mg/kg of xanomeline, Mean. As for the experimental part: (§1) • Step 1: A stock solution of the compound(s) were prepared to 1 mg/ml in DMSO • Step 2: A 10,000 ng/mL matched matrix standard was prepared using the stock solution(s) • Step 3: Calibration standards in matched matrix were prepared between 10,000 ng/ml and 0.5 ng/mL using serial dilution • Step 4: QC samples were prepared in matched matrix at 4000, 800, 400, 40 and 10 ng/mL
(§2) • Step 1: Add 10 μL of the standards, QCs and samples to a 96-well plate (extraction plate) • Step 2: To each standard, QC and test sample, add 100 μL of ISZ • Step 3: Sonicate for 2 min then mix the plate for approximately 2 min at 1200 rpm on a plate shaker • Step 4: Centrifuge the plate at 3000 rpm for 5 min • Step 5: Add 50 μL 0.1% formic acid in UP H2O to wells of a new 96-well plate • Step 6: Transfer 50 μL extracted sample to relevant position in second 96-well plate • Step 7: Mix at 1200 rpm for 2 min • Step 8: Heat seal and analyse on the LC-MS/MS system • Instrument: Xevo TQ-D with CTC Autosampler
(§3) Samples were sent for method optimization and measurement of prodrug via unique calibration lines and following acceptance QC's. Dose formulation concentrations were also measured, and PK parameters were determined (Cmax (ng/mL), Tmax (hr), Cl (ml/min/kg), Vdss (L/kg), t½ (hr), AUC0-t (ng/mL*hr), AUC0-inf (ng/mL*hr), MRT (hr), Bioavailability (% F) where warranted) using WinNon Lin software. Data (including bioanalytical results and assay performance) were reported in a tabulated format and QC'd.
Formulation for IM administration: All compounds were formulated as solutions or fine suspensions in saline at 12.5 mg API/mL. This provided doses of 5 mg/kg (equivalent of xanomeline) when given to a 250 g rat in a 100 μL dosing volume.
The pharmacokinetic properties of the synthesized xanomeline prodrugs after intramuscular administration in a rat model were assessed. The concentration of prodrug was measured in each rat at various sampling timepoints after intramuscular administration of the synthesized xanomeline prodrugs to rats.
Dose formulations were made at equivalent concentrations of active compound (xanomeline) adjusted for molecular weight of the compounds. The synthesized xanomeline prodrugs were dosed at 5 mg/kg intramuscular (IM) nominal dose. Nominal doses were used in PK parameter determinations.

A short description of data set [2]: Rat PK: plasma prodrug concentration after intravenous (IV) dosing of xanomeline prodrugs at 1 mg/kg (Example A-6). Type of data set: in vivo, male Sprague-Dawley (SD) rats. The following applies: male, Sprague-Dawley, IV 1 mg/kg of xanomeline; for concentration at 0.5 h: 0.500 h; for concentration at 0.75 h: 0.750 h. As for the experimental part:
as §1, §2, §3
Compound was dissolved in DMSO:HPCD (20% w/v in water) [10:90] 0.5 mg API/mL to provide doses of 1 mg/kg when administered IV in a 2 mL/kg dosing volume.
The pharmacokinetic properties of the synthesized xanomeline prodrugs after intravenous administration in a rat model were assessed. The concentration of prodrug was measured in each rat at various sampling timepoints after intravenous administration of the synthesized xanomeline prodrugs to rats.
Dose formulations were made at equivalent concentrations of active compound (xanomeline) adjusted for molecular weight of the compounds. The synthesized xanomeline prodrugs were dosed at 1 mg/kg intravenous (IV) nominal dose. Nominal doses were used in PK parameter determinations.

Setting [3] is: iv, 1 mg/kg, Mean, read-out: Prodrug Plasma Concentrations Following Intravenous Dosing.
The mark [4] stands for this setting: iv, 1 mg/kg, individual animals, read-out: Prodrug Plasma Concentrations Following Intravenous Dosing.

Take `CCCCCCOc1nsnc1C1=CCC[N+](C)(C(CC)OC(=O)C(C)(C)C)C1` (stereo not drawn) [Compound 352]: the Tmax in data set [1] (analyte prodrug) stood at 30 min. Further, the concentration at 2 h in data set [1] (intramuscular, 5 mg/kg, 2.00 h, read-out: Prodrug Plasma Concentrations Following Intramuscular Dosing) worked out at 71.3 ng/mL. Also, in data set [1] (intramuscular, 5 mg/kg, 4.00 h, read-out: Prodrug Plasma Concentrations Following Intramuscular Dosing), the concentration at 4 h came out at 33.4 ng/mL. The concentration at 8 h in data set [1] (intramuscular, 5 mg/kg, 8.00 h, read-out: Prodrug Plasma Concentrations Following Intramuscular Dosing) was 18.6 ng/mL. Besides, the Tmax in data set [2] (analyte prodrug, individual animals) was determined as 15 min. Further, the concentration at 0.25 h in data set [2] (iv, 1 mg/kg, 0.250 h, Mean, read-out: Prodrug Plasma Concentrations Following Intravenous Dosing) was determined as 33.2 ng/mL. In addition, in data set [2] (setting [3]), the concentration at 0.5 h turned out to be 12.9 ng/mL, the concentration at 0.75 h was determined as 6.01 ng/mL and the concentration at 1 h amounted to 5.37 ng/mL. Also, in data set [2] (setting [4]), the concentration at 0.5 h came to 10.3 ng/mL, the concentration at 0.75 h was found to be 6.01 ng/mL and the concentration at 1 h turned out to be 5.58 ng/mL. Moreover, the Cmax in data set [2] (iv, 1 mg/kg, analyte prodrug, Mean) amounted to 33.2 ng/mL. Further, the AUC(0-inf) in data set [2] (iv, 1 mg/kg, analyte prodrug, Mean, read-out: Prodrug AUCINF_obs) amounted to 44.4 ng·h/mL. Besides, the AUC(0-t) in data set [2] (iv, 1 mg/kg, analyte prodrug, Mean, read-out: Prodrug AUClast) stood at 42.4 ng·h/mL.
